# Measured values taken from patent US11345912B2, “Directed evolution of multivalent glycopeptides that tightly bind to target proteins” (Brandeis University, priority 2013, dated 2022).
# pKd: −log10 of the molar value.
# Target: 2G12
# Experiment: Binding curve and KD determination of 2G12-glycopeptide interaction (radiolabeled glycopeptide, protein G magnetic bead capture, scintillation counting)
# Conditions: Table 4; ribosomally translated radiolabeled glycopeptide with His6/FLAG tag, room temperature, fit Fbound=(Fmax[2G12])/(KD+[2G12]); error = standard error of fit
# How it was run: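 Radiolabeled glycopeptide (<4 pmol) from PURE-system translation with click glycosylation was incubated with 100 nM 2G12 at room temperature. Complexes were captured on protein G beads and eluted at 70° C. Bound and unbound fractions were counted by scintillation, run at least in triplicate, and KD derived from binding curves.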
smiles,measurement,value
"CC[C@H](C)[C@H](NC(=O)[C@H](CC(=O)O)NC(=O)[C@@H]1CCCN1C(=O)[C@H](C)NC(=O)[C@H](C)NC(=O)[C@H](CO)NC(=O)[C@@H](NC(=O)[C@@H]1CCCN1C(=O)[C@H](Cc1c[nH]cn1)NC(=O)[C@H](CCc1cn(C2CCC(OC3O[C@H](CO[C@H]4O[C@H](CO[C@H]5O[C@H](CO)[C@@H](O)[C@H](O)[C@@H]5O[C@H]5O[C@H](CO)[C@@H](O)[C@H](O)[C@@H]5O)[C@@H](O)[C@H](O[C@H]5O[C@H](CO)[C@@H](O)[C@H](O)[C@@H]5O[C@H]5O[C@H](CO)[C@@H](O)[C@H](O)[C@@H]5O)[C@@H]4O)[C@@H](O)[C@H](O[C@H]4O[C@H](CO)[C@@H](O)[C@H](O)[C@@H]4O[C@H]4O[C@H](CO)[C@@H](O)[C@H](O)[C@@H]4O[C@H]4O[C@H](CO)[C@@H](O)[C@H](O)[C@@H]4O)[C@@H]3O)CC2)nn1)NC(=O)[C@H](C)NC(=O)[C@H](Cc1c[nH]cn1)NC(=O)[C@H](Cc1ccccc1)NC(=O)[C@H](Cc1ccc(O)cc1)NC(=O)[C@H](Cc1c[nH]cn1)NC(=O)[C@H](C)NC(=O)[C@H](CO)NC(=O)[C@H](CCCNC(=N)N)NC(=O)[C@H](CO)NC(=O)[C@H](CC(C)C)NC(=O)[C@H](CCc1cn(C2CCC(OC3O[C@H](CO[C@H]4O[C@H](CO[C@H]5O[C@H](CO)[C@@H](O)[C@H](O)[C@@H]5O[C@H]5O[C@H](CO)[C@@H](O)[C@H](O)[C@@H]5O)[C@@H](O)[C@H](O[C@H]5O[C@H](CO)[C@@H](O)[C@H](O)[C@@H]5O[C@H]5O[C@H](CO)[C@@H](O)[C@H](O)[C@@H]5O)[C@@H]4O)[C@@H](O)[C@H](O[C@H]4O[C@H](CO)[C@@H](O)[C@H](O)[C@@H]4O[C@H]4O[C@H](CO)[C@@H](O)[C@H](O)[C@@H]4O[C@H]4O[C@H](CO)[C@@H](O)[C@H](O)[C@@H]4O)[C@@H]3O)CC2)nn1)NC(=O)[C@H](CC(C)C)NC(=O)[C@H](Cc1ccccc1)NC(=O)[C@H](C)NC(=O)[C@@H]1CCCN1C(=O)[C@H](CO)NC(=O)[C@@H]1CCCN1C(=O)[C@H](CS)NC(=O)[C@H](C)NC(=O)[C@@H](NC(=O)[C@H](CCC(N)=O)NC(=O)[C@H](CCc1cn(C2CCC(OC3O[C@H](CO[C@H]4O[C@H](CO[C@H]5O[C@H](CO)[C@@H](O)[C@H](O)[C@@H]5O[C@H]5O[C@H](CO)[C@@H](O)[C@H](O)[C@@H]5O)[C@@H](O)[C@H](O[C@H]5O[C@H](CO)[C@@H](O)[C@H](O)[C@@H]5O[C@H]5O[C@H](CO)[C@@H](O)[C@H](O)[C@@H]5O)[C@@H]4O)[C@@H](O)[C@H](O[C@H]4O[C@H](CO)[C@@H](O)[C@H](O)[C@@H]4O[C@H]4O[C@H](CO)[C@@H](O)[C@H](O)[C@@H]4O[C@H]4O[C@H](CO)[C@@H](O)[C@H](O)[C@@H]4O)[C@@H]3O)CC2)nn1)NC=O)[C@@H](C)O)[C@@H](C)O)C(=O)N[C@@H](CO)C(=O)NCC(=O)N[C@@H](CO)C(=O)NCC(=O)N[C@@H](CO)C(=O)N[C@@H](CC(C)C)C(=O)NCC(=O)N[C@@H](Cc1c[nH]cn1)C(=O)N[C@@H](Cc1c[nH]cn1)C(=O)N[C@@H](Cc1c[nH]cn1)C(=O)N[C@@H](Cc1c[nH]cn1)C(=O)N[C@@H](Cc1c[nH]cn1)C(=O)N[C@@H](Cc1c[nH]cn1)C(=O)N[C@@H](CCCNC(=N)N)C(=O)N[C@@H](CC(=O)O)C(=O)N[C@@H](Cc1ccc(O)cc1)C(=O)N[C@@H](CCCCN)C(=O)N[C@@H](CC(=O)O)C(=O)N[C@@H](CC(=O)O)C(=O)N[C@@H](CC(=O)O)C(=O)N[C@@H](CC(=O)O)C(=O)N[C@@H](CCCCN)C(=O)O (stereo partly shown) [Clone 6E, XQTACPSPAFLXLSRSAHYFHAXHPTSAAPDIS]",pKd,< 6.89
